Laboratory results from PMC10779143, “Collagen-like Osteoclast-Associated Receptor (OSCAR)-Binding Motifs Show a Co-Stimulatory Effect on Osteoclastogenesis in a Peptide Hydrogel System” (International Journal of Molecular Sciences, 2023).

Legend:
[1] = CD analysis of secondary structure (collagen triple helix) and refolding; format: physicochemical; conditions: CD Buffer pH 7.4
Procedure: Secondary structures of OP1_Hyp, OP1_Pro, and OCol1 were analysed by circular dichroism (CD) spectroscopy using a Jasco® J-810 spectropolarimeter (UCI, Irvine, CA, USA) equipped with a Peltier temperature controller. OP1_Hyp and OP1_Pro were resuspended up to a concentration of 0.5 mg/mL in a CD transparent buffer (10 mM K2HPO4, 10 mM KH2PO4, 150 mM KF, pH 7.4, CD Buffer) [15] and kept for 24 h at 4 °C to allow for the formation of the collagen triple helical structure. OCol1 was exchanged to CD Buffer using a PD 10 disposable desalting column (GE17-0851-01, Merck, Feltham, UK). Briefly, the column was equilibrated with five column volumes of CD Buffer before the addition of OCol1 to the storage buffer. After flow-through collection, 0.5 mL fractions were collected into 1.5 mL Eppendorf tubes. The OCol1 elution fractions were quickly analysed by CD, and the one with the highest concentration (0.2 mg/mL) was used. CD spectra were measured between 190 nm and 260 nm at 10 °C using a 1 mm path-length CD-matched quartz cuvette (Starna Scientific, Ilford, UK). Data were collected every 0.2 nm with a 1 nm bandwidth. Spectral baselines were corrected by subtracting the spectrum of CD Buffer (blank) collected under the same conditions. Additionally, the thermal stability of OP1_Hyp, OP1_Pro, and OCol1 was analysed. Thermal transition profiles were recorded between 10 °C and 60 °C (OP1_Hyp and OP1_Pro) or 70 °C (OCol1) at 222 nm with a data pitch of 0.2 °C, a bandwidth of 1 nm, a detector response time of 32 s, and a temperature slope of 1 °C/min. Samples were cooled back to 10 °C after the different transitions had been completed, and final spectra were recorded at that temperature. Ellipticity in millidegrees was converted to mean residue molar ellipticity Θ (degree cm^2 dmol^−1) by normalising for the number of residues on each peptide or protein [23].

[2] = target: T1, recombinant human OSCAR-Fc chimera (Homo sapiens, UniProt Q8IYS5); assay: Surface plasmon resonance (SPR) analysis of the peptide-OSCAR interaction; format: binding; conditions: 25 °C
T1 construct: extracellular region of human OSCAR (Asp19-Asn229, NP_573399); purchased R&D Systems, Bio-Techne 9955-OS
T1 sequence (Q8IYS5 19-229 isoform Q8IYS5-2): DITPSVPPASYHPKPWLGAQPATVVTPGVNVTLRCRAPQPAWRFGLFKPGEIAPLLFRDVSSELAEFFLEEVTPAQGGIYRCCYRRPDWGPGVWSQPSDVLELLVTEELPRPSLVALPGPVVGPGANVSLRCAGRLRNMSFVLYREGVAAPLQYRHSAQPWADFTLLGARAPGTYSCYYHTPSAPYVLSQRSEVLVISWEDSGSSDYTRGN
Procedure: Surface plasmon resonance (SPR) was used to determine the binding affinity between OP1_Hyp or OP1_Pro and a recombinant human OSCAR-Fc chimera made from the extracellular region of human OSCAR (Asp19-Asn229, NP_573399) and the Fc domain from human IgG1 (Pro100-Lys330, P01857-1). A kinetic analysis was performed with immobilised OSCAR-Fc, OP1_Hyp, and OP1_Pro as analytes. A Langmuir 1:1 model was used to perform the kinetic analysis. This model is based on a simple interaction between ligand and analytes where a 1:1 molar complex is formed at equilibrium, i.e., A + B ⇄ AB. The kinetics of the reaction are determined by the association and dissociation rate constants (ka and kd, respectively), with an overall affinity constant (KD) given by KD = kd/ka.
SPR analyses were carried out on a Biacore™ T200 (Cytiva) using a Series S CM5 sensor chip with an assay running buffer of 10 mM PBS, 150 mM NaCl, 0.05% Tween20, pH 7.4. Reference and active flow cells were activated by injecting 70 μL of a 1:1 mixture of 0.2 M 1-ethyl-3-(3-dimethylaminopropyl)-carbodiimide (EDC) and 0.1 M N-hydroxysuccinimide (NHS) at 10 µL/min. Recombinant human OSCAR-Fc chimera (R&D Systems, Bio-Techne, Minneapolis, MN, USA, 9955-OS) was immobilised onto the active flow cell at 20 µg/mL in 10 mM sodium acetate pH 5.0 at 10 µL/min to 6880 response units (RU). Reference and active flow cells were blocked using 1 M ethanolamine, pH 8, at a flow rate of 10 µL/min. For kinetic and equilibrium binding analysis, OP1_Hyp and OP1_Pro peptides were flowed at 25 °C active and reference flow cells at 30 µL/min in assay running buffer at peptide concentrations of 5000—0 nM (OP1_Hyp) and 40,000—0 nM (OP1_Pro), using a dilution series. Surfaces were regenerated with a 10 s injection of 0.1 M glycine, pH 2.0. Data sets were analysed with the built-in BiaEvaluation software (version 4.1). The models used for analysis were the Langmuir 1:1 binding model and the steady-state analysis model. Data are presented as the mean and standard error of the mean (SEM) of triplicate runs.

[3] = system: Raw 264.7 cells; assay: TRAP staining / osteoclast morphology of Raw 264.7 cells on peptide-coated tissue culture plastic; format: cell-based
Procedure: (§1) Raw 264.7 cells were cultured and passaged as previously described. Cell adhesion to OP1_Hyp and OP1_Pro was assessed as shown by Barrow et al.. Briefly, 48-well plates were coated with 10 µg/mL of OSCAR-binding peptides overnight at 4 °C. The excess peptide was then removed by washing with PBS before adding 1% BSA to block non-specific binding sites for 1 h at 25 °C. Raw 264.7 cells were then resuspended at a concentration of 2 × 10^5 cells/mL and added to the well. Cells were cultured with different concentrations of human RANKL (hRANKL) (catalogue number: 310-01 from Peprotech, London, UK) (0–100 ng/mL) for up to 5 days to assess the contribution of the OSCAR-binding peptides OP1_Hyp and OP1_Pro to the differentiation of Raw 264.7 cells to mature OCs.
After 5 days of post-culture, Raw 264.7 cells were fixed in 4% PFA for 15 min at room temperature. TRAP was stained following the manufacturer’s protocol and evaluated by light microscopy (ThermoFisher, Swindon, UK). Multinucleated TRAP+ cells containing more than three nuclei were scored as mature OCs.

[4] = system: TRAP gene expression, Raw 264.7 cells; assay: qRT-PCR TRAP gene expression, Raw 264.7 cells on peptide-coated TCP; format: cell-based
Procedure: as §1
(§2) Gene expression of OC markers was evaluated as previously described. A StepOne™ Real-Time PCR System (Applied Biosystems, Warrington, UK) was used, with TaqMan probes and a universal PCR Master Mix (Life Technologies, Carlsbad, CA, USA, 4304437) in a total volume of 10 µL. The TaqMan probes for TRAP and OSCAR were Mm00475698_m1 and Mm01338227_g1, respectively. Data were analysed using the 2^−∆Ct method and normalised to the endogenous housekeeping gene GAPDH (Mm99999915_g1). Experiments were performed in triplicate.

[5] = system: OSCAR gene expression, Raw 264.7 cells; assay: qRT-PCR OSCAR gene expression, Raw 264.7 cells on peptide-coated TCP; format: cell-based; conditions: n = 3
Procedure: as §1, §2

In the case of “Ac-GPOGPOGPOGAPGPAGFAGPOGPOGPO-NH2 [OP1_Pro]”, the “Triple helical features (positive ellipticity band) at 70 °C” value ([1]; CD at 70 °C) is reported as “disappeared from the CD spectra”, the “Secondary structure by CD” value ([1]; CD spectra 190-260 nm at 10 °C, 0.5 mg/mL peptides, 0.2 mg/mL OCol1) is reported as “a band of positive ellipticity with a maximum at ~220 nm and a deep band of negative ellipticity with a minimum at ~198 nm, previously associated with the typical conformation of the collagen triple helix” and the “Refolding of the triple helix after denaturation” value ([1]; cooling from 70 °C to 10 °C, approximately 30 min, 210 µM peptides, 12 µM OCol1) is reported as “partial recovery of the collagen structure”. For the same substance, the “Retention of OSCAR binding on replacing Hyp with Pro” value ([2]; Hyp at position 3 replaced with Pro) was “OSCAR binding is not abolished”, the “Association/dissociation behaviour in sensorgrams” value ([2]; immobilised human OSCAR-Fc, pH 7.4) was “both association and dissociation phases occurred very quickly” and the “Osteoclast features / TRAP staining, 10 ng/mL hRANKL” value ([3]; 5 days on coated TCP, 10 ng/mL hRANKL (suboptimal)) was “still showed signs of osteoclastogenesis”. The “Osteoclast features / TRAP staining, 100 ng/mL hRANKL” value ([3]; 5 days on coated TCP, 100 ng/mL hRANKL, peptide effect masked by high hRANKL) was “typical OC features”, the “Differentiation without hRANKL (TRAP staining)” value ([3]; 5 days on coated TCP, no hRANKL added) was “not able to trigger any differentiation on their own” and the “Overall effect on differentiation of Raw 264.7 cells on coated TCP” value ([3]; used as substrate on TCP) was “positive effect on differentiation”. The “TRAP expression, 100 ng/mL hRANKL” value ([4]; 5 days vs day 1, relative to GAPDH, n = 3) was “significantly higher after 5 days”, the “TRAP expression, 10 ng/mL hRANKL” value ([4]; 5 days, relative to GAPDH, n = 3, lower than with 100 ng/mL hRANKL) was “TRAP expression was lower” and the “TRAP expression, 0-1 ng/mL hRANKL” value ([4]; five days, relative to GAPDH, n = 3) was “either expressed at lower amounts or did not change significantly after five days of culture”. The “OSCAR expression, 100 ng/mL hRANKL” value ([5]; 5 days vs day 1, relative to GAPDH) was “significantly higher compared to day 1”, the “OSCAR expression, 10 ng/mL hRANKL” value ([5]; 5 days, relative to GAPDH) was “still significantly higher” and the “OSCAR expression, 0-1 ng/mL hRANKL” value ([5]; five days, relative to GAPDH) was “either expressed at lower amounts or did not change significantly after five days of culture”.
